Source: patent US12115373B2, “Methods for reducing the risk of strokes by pharmacotherapy to reduce the number and duration of atrial fibrillations” (Xyra, LLC, priority 2022, dated 2024)

How the values were obtained:
Assay type in all cases: in vivo
[1] = test system: patients with either paroxysmal or persistent AFib; assay: Clinical trial: episodes of long duration AFib (>1 hr), pacemaker monitoring (Example 5); conditions: 2 week period; for Episodes of AFib > 1 hrs: Duration / Episodes of AFib > 1 hrs: Number: 6 patients
Protocol: This example is a clinical trial evaluation of budiodarone in treating 6 patients with either paroxysmal or persistent AFib who previously evidenced episodes of long duration AFib (greater than 1 hour). In this example, the patients' heart rhythms were continuously monitored over a twelve-week period with a pacemaker (surgically invasive procedure) and were treated with different doses (2 weeks each) of budiodarone. In addition, during this trial, the patients were under continuous monitoring and constant clinician supervision.
The purpose of this example is to establish whether budiodarone reduces long duration AFib (duration >1 hr) in a clinical study setting using a pacemaker to evaluate the heart rhythm.
As above, “Number” indicates a number of long duration AFib episodes during the 2 week period, and “Duration” indicates a number of hours during the 2 week period sent in the long duration AFib episodes

[2] = test system: patients with paroxysmal or persistent AFib; assay: Clinical trial evaluation of budiodarone, 6 patients, pacemaker monitoring, two-week dose periods (Example 2); set-up: Duration of episodes, Mean / Duration of sinus rhythm, Mean: unit not given here; conditions: for # of AFib episodes, Mean / Duration of episodes, Mean / Duration of sinus rhythm, Mean / Longest AFib Episode - hrs: two-week period, 6 patients
Protocol: This example is a clinical trial evaluation of budiodarone in treating 6 patients with paroxysmal or persistent AFib who previously evidenced episodes of long duration AFib (greater than 24 hours). In this example, the patients' heart rhythm was continuously monitored over a two-week period with a pacemaker, and were treated with different doses of budiodarone. The purpose of this example is to establish whether budiodarone reduces long duration AFib lasting more than 24 hours.

[3] = Serum half-life of budiodarone; conditions: human

For CC[C@H](C)OC(=O)Cc1oc2ccccc2c1C(=O)c1cc(I)c(OCCN(CC)CC)c(I)c1 [budiodarone, (S)-sec-butyl2-(3-(4-(2-(diethylamino)ethoxy)-3,5-diiodobenzoyl)benzofuran-2-yl)acetate], the “Episodes of AFib > 1 hrs: Duration, percent of Off Drug (baseline)” value (from here on “Episodes … percent of Off Drug (baseline)”) ([1]; 200 mg bid) was “(10%)”, the “Episodes of AFib > 1 hrs: Duration” value ([1]; 200 mg bid) was 60 h and the “Episodes of AFib > 1 hrs: Number” value ([1]; 200 mg bid) was 22. The “Episodes … percent of Off Drug (baseline)” value ([1]; 400 mg bid) was “(9.3%)”, the “Episodes of AFib > 1 hrs: Duration” value ([1]; 400 mg bid) was 56 h and the “Episodes of AFib > 1 hrs: Number” value ([1]; 400 mg bid) was 12. For the same compound, the “Episodes … percent of Off Drug (baseline)” value ([1]; 600 mg bid) was “(4.3%)”, the “Episodes of AFib > 1 hrs: Duration” value ([1]; 600 mg bid) was 26 h and the “Episodes of AFib > 1 hrs: Number” value ([1]; 600 mg bid) was 6. The “Episodes … percent of Off Drug (baseline)” value ([1]; 800 mg bid) was “(2.5%)”, the “Episodes of AFib > 1 hrs: Duration” value ([1]; 800 mg bid) was 15 h and the “Episodes of AFib > 1 hrs: Number” value ([1]; 800 mg bid) was 6. The “# of AFib episodes, Mean” value ([2]; 200 mg bid) was 31, the “Duration of episodes, Mean” value ([2]; 200 mg bid) was 1.7 and the “Duration of sinus rhythm, Mean” value ([2]; 200 mg bid) was 131. The “Longest AFib Episode - hrs” value ([2]; 200 mg bid) was 7 h, the “# of AFib episodes, Mean” value ([2]; 400 mg bid) was 37 and the “Duration of episodes, Mean” value ([2]; 400 mg bid) was 0.6. For the same compound, the “Duration of sinus rhythm, Mean” value ([2]; 400 mg bid) was 48, the “Longest AFib Episode - hrs” value ([2]; 400 mg bid) was 13 h and the “# of AFib episodes, Mean” value ([2]; 600 mg bid) was 42. The “Duration of episodes, Mean” value ([2]; 600 mg bid) was 0.1, the “Duration of sinus rhythm, Mean” value ([2]; 600 mg bid) was 103 and the “Longest AFib Episode - hrs” value ([2]; 600 mg bid) was 7 h. For the same compound, the “# of AFib episodes, Mean” value ([2]; 800 mg bid) was 24, the “Duration of episodes, Mean” value ([2]; 800 mg bid) was 0.5 and the “Duration of sinus rhythm, Mean” value ([2]; 800 mg bid) was 42. For the same compound, the “Longest AFib Episode - hrs” value ([2]; 800 mg bid) was 5 h, the “episodes of long duration AFib lasting more than 24 hours eliminated as compared to Baseline” value ([2]; all dose levels (200-800 mg bid)) was “over 70%” and the “reduction in AFib burden (number of episodes over a 2-week period times the average duration)” value ([2]; vs baseline, dose levels 200-800 mg bid) was “more than 64%”. For the same compound, the half-life ([3]; after administration) was 6 to 7 h and the time to reach steady state ([3]; read-out: steady state (about 5x the serum half-life)) was 1800 to 2100 min.
